We go through 24 compounds from patent US4845123A, “Reduction in vivo of the inappropriate levels of endogenous and environmental-derived compounds by sustained-release inhibitors of β- g” (priority 1985, dated 1989).

The test system of data set [1] is 60 kd oncofetal protein. The conditions noted are these: rat, in vivo; for Plasma concentration of the 60 kd protein at 21 days post-treatment with PAH: ip.
The subject of data set [2] is 60 kd oncofetal protein. In words: effect of β-glucuronidase inhibitors on carcinogen induction of the 60 kd factor in plasma (cell-free RNA transport assay). The format is in vivo, rat. The conditions noted are these: rat, in vivo.
For data set [3] the following is noted: rat, in vivo, iv, cited from earlier work.
The next data set concerns β-glucuronidase. The conditions noted are these: cited from earlier work.
The subject of another data set is bladder tumors. The conditions noted are these: human, in vivo; cited from earlier work.
The next data set relates to bladder cancer. The conditions noted are these: dog, in vivo; cited from earlier work.
For a further data set, the target named is T1, serum β-glucuronidase (Rattus norvegicus, UniProt P06760).
T1 sequence (P06760 23-648): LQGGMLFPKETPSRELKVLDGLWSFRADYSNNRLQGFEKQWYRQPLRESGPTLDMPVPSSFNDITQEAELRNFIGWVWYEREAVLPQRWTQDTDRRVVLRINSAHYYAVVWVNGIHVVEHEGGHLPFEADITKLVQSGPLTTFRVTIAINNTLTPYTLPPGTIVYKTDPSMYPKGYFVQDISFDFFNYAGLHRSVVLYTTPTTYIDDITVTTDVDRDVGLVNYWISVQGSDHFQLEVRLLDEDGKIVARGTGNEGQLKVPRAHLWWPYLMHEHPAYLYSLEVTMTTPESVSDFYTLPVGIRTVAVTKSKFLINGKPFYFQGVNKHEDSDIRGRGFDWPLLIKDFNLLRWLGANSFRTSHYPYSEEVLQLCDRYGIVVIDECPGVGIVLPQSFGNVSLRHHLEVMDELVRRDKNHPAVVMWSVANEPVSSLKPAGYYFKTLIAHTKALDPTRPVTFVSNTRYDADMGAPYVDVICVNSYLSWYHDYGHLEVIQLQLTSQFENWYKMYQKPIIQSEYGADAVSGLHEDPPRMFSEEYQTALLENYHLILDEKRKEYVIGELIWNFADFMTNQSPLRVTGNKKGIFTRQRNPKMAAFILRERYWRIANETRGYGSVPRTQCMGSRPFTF
In words: in vivo. The format is in vivo. The conditions noted are these: rat, in vivo. The method, then:
GL was synthesized and microencapsulated to give sustained-release GL (EGL), by an established procedure used to microencapsulate ascorbic acid, as reported in Samejima, M. et al., Chem. Pharm. Bull., (Tokyo) 1982, 30:2894-2899. In this procedure, the GL as a fine powder is added to a stirred mixture of cyclohexane, polyisobutylene as coacervation-inducing agent and ethylcellulose as wall-forming material. The addition of GL is at 78° C., then phase separation is induced by lowering the temperature first to 40° C., then to 25° C. The microcapsules, which have thick walls, are washed with cyclohexane and dried. […] DAGDL, calcium D-glucarate (CGT), and potassium hydrogen D-glucarate (PGT) were synthesized. For comparison of efficacy of the inhibitors, 1,5 mmoles/kg (GL, EGL or DAGDL) or 4.5 mmoles/kg (CGT or PGT) of the inhibitor in 1.0 ml of sesame oil or vehicle only (controls) was administered to rats by stomach tube at zero time. Blood samples were obtained from different rats by cardiac puncture under ether anesthesia. The serum was prepared and assayed for β-glucuronidase activity using a commerical diagnostic kit sold by Sigma Chemical Company, St. Louis, MO. The assay is based on the hydrolysis of phenolphthalein-glucuronide and quantitation of phenolphthalein in alkaline medium at […]. For tests of anti-carcinogencity, the inhibitors were administered by stomach tube in 1.0 ml of sesame oil 30 minutes before and again at 2.5 hours after the carcinogen, for DAGDL, or 3 hours and 30 minutes before the carcinogen, for EGL, CGT, and PGT. The controls received sesame oil only by stomach tube.
At the time periods indicated above blood samples were obtained from rats under ether aneathesia by cardiac puncture, the serum was then prepared and assayed for β-glucuronidase activity using a commercial diagnostic kit sold by Sigma Chem. Co., St. Louis, MO.
For the inhibition of the initiation stage, CGT was given by gavage in two doses (4.5 mmoles/kg/dose) at 3 hours and again at 0.5 hours before carcinogen administration. […] The concentrations of CGT were incorporated into the powdered chow diet. The blood samples were obtained 10 days after the initiation of the CGT feeding.
DAGDL or GL (1.5 mmol/kg) in 1.0 ml of sesame oil, or vehicle only (controls) was administered to rats by stomach tube at zero time. […] The serum was prepared and assayed for β-glucuronidase activity using a commercial diagnostic kit sold by Sigma Chemical Company, St. Louis, MO. The assay is based on the hydrolysis of phenolphthalein-glucuronide and quantitation of phenolphtalein in alkaline medium at 550 nm.

Another data set has as its system bladder tumor. As to conditions: rat, in vivo; cited from earlier work.
For data set [4] the following is noted: in vivo; cited from earlier work.
The conditions of data set [5]: equilibrated aqueous solution; cited from earlier work.

Entries after “also recorded” stand apart in the source; their conditions may differ.

Consider `CNNC` [1,2-Dimethylhydrazine, 1,2-dimethylhydrazine], for which, in the data set with 60 kd oncofetal protein [1], the “Treatment -I: total concentration of 60 kd factor induced by the carcinogen” value (“Treatment -I: total concentration” for short) amounted to 5.40. As for `O=[N+]([O-])c1ccc2ccc3cccc4ccc1c2c34` [1-Nitropyrene, reference compound], the “overall inhibition of PAH-mediated carcinogenesis, as inhibition of 60 kd oncofetal protein induction” value (“overall inhibition” for short) in the data set with 60 kd oncofetal protein [2] was 50%. Further, the “Plasma concentration of the 60 kd protein at 21 days post-treatment with PAH” value (“Plasma concentration” for short) in the data set with 60 kd oncofetal protein [1] was found to be 5.30 units. As for `CC(=O)Nc1ccc2c(c1)Cc1ccccc1-2` [2-Acetyalaminofluorine, 2-acetylaminofluorene], in the data set with 60 kd oncofetal protein [1], the “Treatment -I: total concentration” value is recorded as 5.11.

`Cc1c2ccccc2c(C)c2c1ccc1ccc(F)cc12` [2-Fluoro-7,12-dimethylbenz[a]anthracene]: the “Plasma concentration” value in the data set with 60 kd oncofetal protein [1] is listed as 0.0. In the case of `Nc1ccc2ccccc2c1` [2-Naphthylamine, 2-naphthylamine], the “Treatment -I: total concentration” value with 60 kd oncofetal protein [1] was 3.29. Take `Cc1ccc2cc3c(ccc4ccccc43)c3c2c1CC3` [3-Methylcholanthrene, 3-methyl-1,2-dihydrobenz[j]aceanthrylene]: the “overall inhibition” value with 60 kd oncofetal protein [2] amounted to 50%. Also, in the data set on 60 kd oncofetal protein [1], the “Treatment -I: total concentration” value is recorded as 5.62 and the “Plasma concentration” value is reported as 6.82.

With `Cc1c2ccccc2c(C)c2c1ccc1ccccc12` [7,12-Dimethylbenz[a]anthracene, 7,12-dimethylbenz[a]anthracene], the “overall inhibition” value with 60 kd oncofetal protein [2] came out at 75%. Moreover, the “Plasma concentration” value in the data set on 60 kd oncofetal protein [1] turned out to be 6.42. For the compound `COc1cc2c(c3oc(=O)c4c(c13)CCC4=O)[C@@H]1C=CO[C@@H]1O2` [Aflatoxin B1, aflatoxin B1], the “Treatment -I: total concentration” value with 60 kd oncofetal protein [1] came out at 4.37.

For `COc1cc2c(c3oc(=O)c4c(c13)CCOC4=O)[C@@H]1CCO[C@@H]1O2` [Aflatoxin G2, aflatoxin G2], in the data set with 60 kd oncofetal protein [1], the “Treatment -I: total concentration” value stood at 3.80. In the case of `c1ccc2cc3ccccc3cc2c1` [Anthracene], the “Plasma concentration” value in the data set on 60 kd oncofetal protein [1] was determined as 0.0. Still for that read-out and setting: in the case of `c1ccc2cc3c(ccc4ccccc43)cc2c1` [Benz[a]anthracene] it was 4.92. With `c1ccc2c(c1)cc1ccc3cccc4ccc2c1c34` [Benzo[a]pyrene], in data set [3] (6 h), the “dose excreted in bile” value is reported as about 60%. For the same compound, in data set [3], the “biliary metabolites being glucuronides” value is recorded as 40%. Also, the “overall inhibition” value with 60 kd oncofetal protein [2] was determined as 75%. Moreover, in the data set with 60 kd oncofetal protein [1], the “Treatment -I: total concentration” value was 7.73 and the “Plasma concentration” value came out at 7.73. In the case of `c1ccc2c(c1)c1cccc3ccc4cccc2c4c31` [Benzo[e]pyrene], the “Plasma concentration” value with 60 kd oncofetal protein [1] is 3.37. Take `c1ccc2c(c1)Cc1ccccc1-2` [Fluorene]: in the data set on 60 kd oncofetal protein [1], the “Plasma concentration” value is given as 0.0 units. For the compound `O=C(O)[C@@H](O)[C@H]1OC(=O)[C@H](O)[C@H]1O` [GL, D-glucaro-1,4-lactone, reference compound], the “inhibition of β-glucuronidase in vitro” value with β-glucuronidase was “potent inhibitor”. Besides, the “clinical effect in prevention of bladder tumors” value in the data set with bladder tumors is recorded as “failed to show any clear beneficial effects”. Besides, in the data set with bladder cancer, the “prevention of bladder cancer induced with 2-naphthylamine” value is “without any success”. On serum β-glucuronidase, the “depression of serum β-glucuronidase” value was “approximately 50%”, the “reversibility of inhibition by prolonged dialysis” value is “could be reversed” and the “time-course of serum β-glucuronidase inhibition” value is listed as “only a transient inhibition; also recorded: transient nature of the inhibition”. In addition, the “effect on 2-acetylaminofluorene carcinogenesis” value with bladder tumor is reported as “unsuccessful”. Moreover, in data set [4], the “administered compound excreted unchanged in urine” value is given as “less than 50%”; the “rate of metabolism and excretion” value was “rapidly metabolized”. Take `CCCCN(CCCC)N=O` [N--Nitrosodibutylamine, N-nitroso-N,N-dibutylamine]: the “Treatment -I: total concentration” value in the data set on 60 kd oncofetal protein [1] is recorded as 5.44. On the same count and under the same terms, for `CCN(CC)N=O` [N--Nitrosodiethylamine, N-nitroso-N, N-diethylamine] the value was 4.21. The same measure, in the same setting: for `CN(C)N=O` [N--Nitrosodimethylamine, N-nitroso-N,N-dimethylamine] the value was 3.40; for `CCN(N=O)C(N)=O` [N--Nitrosoethylurea, N-nitroso-N-ethylurea], 4.50. On to `CN(N=O)C(N)=O` [N--Nitrosomethylurea, N-nitroso-N-methylurea], for which, in the data set with 60 kd oncofetal protein [1], the “60 kd factor in plasma, MNU without inhibitor” value was 4.6 and the “Treatment -I: total concentration” value worked out at 4.69. With `O=C(O)[C@@H](O)[C@@H](O)[C@H](O)[C@@H](O)C(=O)[O-].[K+]` [PGT, potassium hydrogen D-glucarate], in the data set with 60 kd oncofetal protein [2], the “Percent Inhibition of the induction of the 60 kd factor” value is 65% and the “Treatment +I: total concentration of 60 kd factor” value turned out to be 2.25. Moreover, the “time-course of serum β-glucuronidase inhibition” value on serum β-glucuronidase is listed as “prolonged inhibition”. For `c1cc2ccc3cccc4ccc(c1)c2c34` [Pyrene], in the data set on 60 kd oncofetal protein [1], the “Plasma concentration” value was 0.0.

Regarding `C=CCc1ccc2c(c1)OCO2` [Safrole, safrole], the “Treatment -I: total concentration” value with 60 kd oncofetal protein [1] is reported as 5.90. Take `O=C(O)[C@@H](O)[C@@H](O)[C@H](O)[C@@H](O)C(=O)O` [glucarate]: the “fraction of glucarate converted to GL” value in data set [5] is “approximately one-third”.
